Broadly, the ED50 is the dose that gives a 50% effect, or the effect in half of the subjects.

Structures can show the parent of a compound that is named as a salt. Where two headings read alike, the source gives them in different places. Bounds are passed on as bounds.

Assay [1] has as its system Straub Tail induced by oxymorphone. As to the kind of experiment: Antagonism of Straub Tail induced by oxymorphone in 50 per cent of mice. The class given is in vivo. The following applies: oxymorphone 2 mg./kg. sc., weights in terms of the free base; for ED50: Mus musculus. The procedure: (§1) In vivo testing was conducted on the compounds designated herein as XVc (racemic mixture), d-XVc (dextrorotatory isomer), l-XVc (levorotatory isomer) and dl-XVd (see examples for structures) to determine their agonist and/or antagonist properties. The figures reported are the number of milligrams/kilogram of body weight of compound that produced an agonist or antagonist effect in 50% of the mice and rats so tested (ED50).
(§2) All the compounds were tested as the tartrates, but the weights reported in mg./kg. are corrected and reported in terms of the free base.
^2 Antagonism of Straub Tail induced by oxymorphone (2 mg./kg. sc.) in 50 per cent of mice.

Assay [2] deals with phenylquinone induced writhings. Briefly: Phenylquinone writhing (50 per cent reduction in number of phenylquinone induced writhings), mouse. It is filed as in vivo. The conditions noted are these: for ED50 / ED50 Agonist Activity, Phenylquinone Writhing, Mouse, SC: weights in terms of the free base. The procedure:
as §1, §2
(§3) ^1 A 50 per cent reduction in number of phenylquinone induced writhings (Siegmund, E. A. et al., Proc. Soc. Biol. & Med. 95, 729; 1957).
In general terms: An intraperitoneal irritant provokes the stretching counted in writhing tests.

Assay [3] shares this test system. As to the kind of experiment: Phenylquinone writhing (50 per cent reduction in number of phenylquinone induced writhings), rat. The class given is in vivo. The conditions noted are these: weights in terms of the free base; for ED50: Rattus norvegicus. The procedure:
as §1, §2, §3

The subject of assay [4] is analgesic effect induced by morphine. As to the kind of experiment: animal or person. The class given is in vivo. The following applies: morphine 15 mg./kg. sc., weights in terms of the free base; for ED50: Rattus norvegicus. The method, then: as §1, §2
Assay [5] concerns righting reflex loss induced by oxymorphone. As to the kind of experiment: animal or person. The class given is in vivo. The conditions noted are these: Rattus norvegicus, rats, oxymorphone 1.5 mg./kg. sc., weights in terms of the free base. The method, then:
as §1, §2
^3 Antagonism of righting reflex loss induced by oxymorphone (1.5 mg./kg. sc.) in 50 per cent of rats.

Assay [6] in a line: In vivo testing for agonist and/or antagonist properties (overall conclusion from Table I). The conditions noted are these: parenteral and oral administration. Also on record: species or system mice and rats. The method, then:
as §1

Where [7] appears, read: sc, read-out: ED50 Antagonist Activity, Oxymorphone Straub Tail, SC.
Where [8] appears, read: Mus musculus, sc, read-out: ED50 Agonist Activity, Phenylquinone Writhing, Mouse, SC.
The mark [9] stands for this setting: po, read-out: ED50 Agonist Activity, Phenylquinone Writhing, Rat, PO.
Setting [10] is: sc, read-out: ED50 Agonist Activity, Phenylquinone Writhing, Rat, SC.
Where [11] appears, read: po, read-out: ED50 Antagonist Activity, Morphine Antagonism Rat Tail Flick, PO.
Setting [12] is: sc, read-out: ED50 Antagonist Activity, Morphine Antagonism Rat Tail Flick, SC.
[13] abbreviates: SC, read-out: ED50 Antagonist Activity, Oxymorphone Narcosis, SC.

For `C[C@@]12OCCC[C@@]13CCN(CC1CC1)[C@@H]2Cc1ccc(O)cc13` (racemic) [XVc tartrate, N-Cyclopropylmethyl-3-hydroxy-14β-methyl-8-oxamorphinan], the ED50 is 0.61 mg/kg in assay [1] (setting [7]); 0.19 mg/kg in assay [2] (setting [8]); 4 mg/kg in assay [3] (setting [9]); 0.03 mg/kg in assay [3] (setting [10]); 7.3 mg/kg in assay [4] (setting [11]); 0.05 mg/kg in assay [4] (setting [12]). Moreover, in assay [5] (setting [13]), the ED50 was 0.36 mg/kg.

With `C=CCN1CC[C@]23CCCC[C@H]2[C@H]1Cc1ccc(O)cc13` [Levallorphan, reference compound], the “dose response, Phenylquinone Writhing, Mouse, SC” value in assay [2] (SC, remark under the ED50) is “poor dose”. In addition, the ED50 in assay [2] (SC, read-out: ED50 Agonist Activity, Phenylquinone Writhing, Mouse, SC) was found to be 26.3 mg/kg.

Turning to `C=CCN1CC[C@]23c4c5ccc(O)c4O[C@H]2[C@@H](O)C=C[C@H]3[C@H]1C5` [Nalorphine, reference compound], the ED50 in assay [1] (setting [7]) was found to be 1.14 mg/kg.

Turning to `CC(C)=CCN1CCC2(C)c3cc(O)ccc3CC1C2C` (stereo not shown) [Pentazocine, reference compound], the 50% effective dose (ED50) in assay [4] (setting [12]) stood at 12.2 mg/kg; in assay [5] (setting [13]), 10 mg/kg.

As to `C[C@@]12OCCC[C@@]13CCN(CC1CC1)[C@@H]2Cc1ccc(O)cc13` [d-XVc tartrate, N-Cyclopropylmethyl-3-hydroxy-14β-methyl-8-oxamorphinan], in assay [1], the “ED50 Antagonist Activity, Oxymorphone Straub Tail, SC” value is > 10 mg/kg. Also, the “ED50 Agonist Activity, Phenylquinone Writhing, Mouse, SC” value in assay [2] (SC) is > 40 mg/kg. Moreover, in assay [4], the “ED50 Antagonist Activity, Morphine Antagonism Rat Tail Flick, SC” value was > 20 mg/kg.

In the case of `C[C@@]12OCCC[C@@]13CCN(CC1CC1)[C@@H]2Cc1ccc(O)cc13` [l-XVc tartrate, N-Cyclopropylmethyl-3-hydroxy-14β-methyl-8-oxamorphinan], the 50% effective dose (ED50) in assay [1] (po, read-out: ED50 Antagonist Activity, Oxymorphone Straub Tail, PO) was determined as 14.6 mg/kg; in assay [2] (Mus musculus, po, read-out: ED50 Agonist Activity, Phenylquinone Writhing, Mouse, PO) it was 2.7 mg/kg; in assay [3] (setting [9]) it was 1.3 mg/kg; in assay [4] (setting [11]) it was 6.3 mg/kg; in assay [5] (PO, read-out: ED50 Antagonist Activity, Oxymorphone Narcosis, PO), 1.25 mg/kg; in assay [5] (setting [13]), 0.014 mg/kg. In assay [1], the “ED50 Antagonist Activity, Oxymorphone Straub Tail, SC” value is listed as “≈ 0.2 mg./kg”. In assay [2] (SC), the “ED50 Agonist Activity, Phenylquinone Writhing, Mouse, SC” value came out at 0.11 mg/kg. The “agonist and antagonist activity” value in assay [6] is “potent agonist and antagonist activity”. In addition, in assay [3] (SC), the “ED50 Agonist Activity, Phenylquinone Writhing, Rat, SC” value amounted to 0.02 mg/kg. Further, the “ED50 Antagonist Activity, Morphine Antagonism Rat Tail Flick, SC” value in assay [4] came to 0.021 mg/kg.

On to `Cl.Oc1ccc2c(c1)[C@@]13CCCO[C@H]1[C@H](C2)N(CC1CC1)CC3` [l-XVk hydrochloride, l-N-cyclopropylmethyl-3-hydroxy-8-oxamorphinan hydrochloride], for which the ED50 amounted to 0.2 mg/kg in assay [1] (setting [7]); 0.013 mg/kg in assay [2] (setting [8]); 0.009 mg/kg in assay [3] (setting [10]); 0.97 mg/kg in assay [4] (setting [12]); 0.03 mg/kg in assay [5] (setting [13]).

The values are drawn from patent US3959290A, “3,14-Substituted-8-oxamorphinans” (Bristol-Myers Company, priority 1974, dated 1976).
